Measurements: ChEMBL document CHEMBL1201862, “PubChem BioAssay data set” (2004)
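Each compound was tested at five concentrations against cells in 96-well plates for 48 hours. At the GI50, growth is halved.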 The source made the active and inactive calls. Rule as the data show it: active = GI50 up to about 1.1 µM and inactive = higher.

Key:
Experiment in all cases: NCI-60 cell line screen, 48 h
[1] = test system: SR
[2] = test system: RXF 393
[3] = test system: SW-620
[4] = test system: OVCAR-5
[5] = test system: HL-60
[6] = test system: M14
[7] = test system: SF-539
[8] = test system: TK-10
[9] = test system: HOP-92
[10] = test system: Malme-3M
[11] = test system: NCI-H460
[12] = test system: NCI-H522
[13] = test system: RPMI-8226
[14] = test system: SNB-19
[15] = test system: EKVX
[16] = test system: HCC 2998
[17] = test system: NCI-H226

Row | Structure (SMILES) | GI50 [1] | GI50 [2] | GI50 [3] | GI50 [4] | GI50 [5] | GI50 [6] | GI50 [7] | GI50 [8] | GI50 [9] | GI50 [10] | GI50 [11] | GI50 [12] | GI50 [13] | GI50 [14] | GI50 [15] | GI50 [16] | GI50 [17]
1 | CC(C)(Oc1ccc(C(=O)c2ccc(Cl)cc2)cc1Cl)C(=O)Nc1c(Cl)cccc1Cl | 9.75 µM (inactive) | < 0.01 µM (active) | > 100 µM (inactive) | > 100 µM (inactive) | 10.7 µM (inactive) | > 100 µM (inactive) | > 100 µM (inactive) | > 100 µM (inactive) | > 100 µM (inactive) | > 100 µM (inactive) | 5.77 µM (inactive) | 12.3 µM (inactive) | > 100 µM (inactive) | > 100 µM (inactive) | > 100 µM (inactive) |  | 
2 | Cc1ccc(C)c2c1C1CCCCC3(OCCCO3)C21O (centres undefined) |  | > 100 µM (inactive) | > 100 µM (inactive) | > 100 µM (inactive) | > 100 µM (inactive) | > 100 µM (inactive) | > 100 µM (inactive) | > 100 µM (inactive) |  | > 100 µM (inactive) | > 100 µM (inactive) | > 100 µM (inactive) | > 100 µM (inactive) | > 100 µM (inactive) |  | > 100 µM (inactive) | > 100 µM (inactive)
3 | CCCCCC(=O)OC[n+]1ccc2c(C)c3[nH]c4ccccc4c3c(C)c2c1 | 0.281 µM (active) | 1.23 µM (inactive) | 0.446 µM (active) | 1.28 µM (inactive) | 2.99 µM (inactive) | 1.42 µM (inactive) | 0.817 µM (active) | 3.08 µM (inactive) | 2.48 µM (inactive) | 1.54 µM (inactive) | 0.142 µM (active) | 1.49 µM (inactive) | 0.288 µM (active) |  | 0.628 µM (active) | 0.787 µM (active) | 1.32 µM (inactive)
4 | CN(C)CCN(C)CCC(=O)/C=C/c1ccccc1 | 7 µM (inactive) | 21.3 µM (inactive) | 18.5 µM (inactive) | > 60.1 µM (inactive) | 16.4 µM (inactive) | 20.9 µM (inactive) | 19.1 µM (inactive) | 25.9 µM (inactive) | 25.5 µM (inactive) | 18.4 µM (inactive) | > 100 µM (inactive) | 4.02 µM (inactive) | 2.16 µM (inactive) | > 93.3 µM (inactive) | 32.1 µM (inactive) | > 45.5 µM (inactive) | > 48.1 µM (inactive)
5 | CN(C)C(=O)Oc1c(-c2ccccc2)c(=O)n2c3ccccc3n3c(=O)n(C)c(=O)c1c23 | > 100 µM (inactive) | > 100 µM (inactive) | > 100 µM (inactive) | > 100 µM (inactive) |  | > 100 µM (inactive) | > 100 µM (inactive) | > 100 µM (inactive) | > 100 µM (inactive) | > 100 µM (inactive) | > 100 µM (inactive) |  | > 100 µM (inactive) | > 100 µM (inactive) | > 100 µM (inactive) | > 100 µM (inactive) | 
6 | Cc1cc(N(CCC#N)CCC#N)ccc1CC1N=C(c2ccccc2)OC1=O (centres undefined) |  |  | > 100 µM (inactive) | > 100 µM (inactive) | > 100 µM (inactive) | > 100 µM (inactive) | > 100 µM (inactive) | > 100 µM (inactive) | > 100 µM (inactive) | > 100 µM (inactive) | > 100 µM (inactive) | > 100 µM (inactive) | > 100 µM (inactive) | > 100 µM (inactive) | > 100 µM (inactive) | > 100 µM (inactive) | 64.1 µM (inactive)
7 | Cc1c(C(=O)CC(=O)C(=O)Nc2cccc(C(F)(F)F)c2)[n+]([O-])c2ccccc2[n+]1[O-] | 2.33 µM (inactive) | 11.5 µM (inactive) | 3.54 µM (inactive) | 7.28 µM (inactive) | 3.08 µM (inactive) | 3.37 µM (inactive) | 3.13 µM (inactive) | 28.2 µM (inactive) | 14.3 µM (inactive) | 4.22 µM (inactive) | 2.97 µM (inactive) | 2.31 µM (inactive) | 3.07 µM (inactive) | 4.88 µM (inactive) | 5.07 µM (inactive) | 4.72 µM (inactive) | 30.8 µM (inactive)
8 | Cn1c2c(c3ccccc31)C1CCCCCCC1C1C(=O)OC(=O)C21 (centres undefined) | 29 µM (inactive) | 21.2 µM (inactive) | 32.4 µM (inactive) | > 100 µM (inactive) | 30.8 µM (inactive) | 88.1 µM (inactive) | 39.8 µM (inactive) | > 100 µM (inactive) |  | 11.9 µM (inactive) | 36.8 µM (inactive) |  | 23.1 µM (inactive) | 44.8 µM (inactive) | 45.5 µM (inactive) | 22.4 µM (inactive) | 63 µM (inactive)
9 | CC(=O)OC(C)(C)[C@@H]1CC[C@]2(C)/C=C/[C@H](C)C[C@@H](O)C3=C(C)C[C@@H](O3)C12 (some centres undefined) | > 100 µM (inactive) | 94.6 µM (inactive) | > 100 µM (inactive) | > 100 µM (inactive) | > 100 µM (inactive) | > 100 µM (inactive) | > 100 µM (inactive) | > 100 µM (inactive) | > 100 µM (inactive) | > 100 µM (inactive) | > 100 µM (inactive) |  | > 100 µM (inactive) | > 100 µM (inactive) | > 100 µM (inactive) | > 100 µM (inactive) | 49.1 µM (inactive)
